Assay results published in paper PMC9551036, “A selective and orally bioavailable VHL-recruiting PROTAC achieves SMARCA2 degradation in vivo” (Nature Communications, 2022).
Where “and” joins values, the source holds several entries; their conditions need not be identical. Equal values may be shown once.

How the values were obtained:
SMARCA2 = SMARCA2 (Homo sapiens, UniProt P51531); assay: SMARCA2 capillary electrophoresis protein assay in RKO cells; format: cell-based; design: endogenous in cells; host or cells: RKO, NCI-H1568, A549, HCT116, LU99, HCC-364, HCT-15, HCC4006, SK-N-AS; conditions: for DC50 / Dmax / SMARCA2 Dmax: mean ± SD; for Dmax: RKO
Sequence of SMARCA2 (P51531 whole entry): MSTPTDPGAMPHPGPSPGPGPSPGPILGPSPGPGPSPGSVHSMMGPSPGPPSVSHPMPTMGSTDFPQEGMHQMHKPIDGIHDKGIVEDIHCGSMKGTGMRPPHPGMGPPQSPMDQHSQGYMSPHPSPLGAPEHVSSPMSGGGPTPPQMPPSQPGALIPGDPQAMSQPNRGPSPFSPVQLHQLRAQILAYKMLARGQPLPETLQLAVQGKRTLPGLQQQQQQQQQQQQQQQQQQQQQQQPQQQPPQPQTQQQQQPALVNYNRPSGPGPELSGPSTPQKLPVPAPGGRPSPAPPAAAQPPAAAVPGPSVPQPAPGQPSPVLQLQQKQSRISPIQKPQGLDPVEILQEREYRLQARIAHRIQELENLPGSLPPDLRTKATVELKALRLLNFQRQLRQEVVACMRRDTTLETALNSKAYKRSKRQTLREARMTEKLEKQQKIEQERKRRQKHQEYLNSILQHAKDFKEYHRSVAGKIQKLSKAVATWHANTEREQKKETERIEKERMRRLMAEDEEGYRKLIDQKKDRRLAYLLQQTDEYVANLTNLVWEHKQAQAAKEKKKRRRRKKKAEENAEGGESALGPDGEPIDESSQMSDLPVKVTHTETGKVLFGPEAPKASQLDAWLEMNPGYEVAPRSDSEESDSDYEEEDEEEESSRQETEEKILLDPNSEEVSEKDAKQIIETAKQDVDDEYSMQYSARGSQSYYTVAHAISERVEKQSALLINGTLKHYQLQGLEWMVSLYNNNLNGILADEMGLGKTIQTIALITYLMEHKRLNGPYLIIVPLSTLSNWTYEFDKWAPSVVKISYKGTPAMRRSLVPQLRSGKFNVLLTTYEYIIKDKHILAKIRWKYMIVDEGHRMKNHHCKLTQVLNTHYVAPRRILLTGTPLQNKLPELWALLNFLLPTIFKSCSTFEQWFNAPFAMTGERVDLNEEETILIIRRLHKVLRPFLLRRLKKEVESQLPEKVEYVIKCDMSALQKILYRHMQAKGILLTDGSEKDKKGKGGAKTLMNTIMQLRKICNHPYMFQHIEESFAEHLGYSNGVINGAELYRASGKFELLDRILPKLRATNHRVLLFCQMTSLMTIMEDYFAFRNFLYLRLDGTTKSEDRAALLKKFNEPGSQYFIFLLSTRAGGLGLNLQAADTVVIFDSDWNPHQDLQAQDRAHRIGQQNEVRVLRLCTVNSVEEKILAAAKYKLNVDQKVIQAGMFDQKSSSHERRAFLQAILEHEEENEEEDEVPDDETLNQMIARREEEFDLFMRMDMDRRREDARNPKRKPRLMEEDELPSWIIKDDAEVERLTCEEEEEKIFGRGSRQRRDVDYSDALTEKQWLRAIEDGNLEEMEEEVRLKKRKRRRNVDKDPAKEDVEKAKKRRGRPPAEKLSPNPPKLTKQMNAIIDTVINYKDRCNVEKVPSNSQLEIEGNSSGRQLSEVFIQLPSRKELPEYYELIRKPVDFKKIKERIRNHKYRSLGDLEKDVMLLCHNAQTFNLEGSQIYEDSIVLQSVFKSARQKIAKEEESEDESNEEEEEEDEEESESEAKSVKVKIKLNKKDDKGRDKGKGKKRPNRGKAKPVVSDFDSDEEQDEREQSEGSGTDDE
Protocol: 130,000–200,000 cells were seeded in 24-well plates and incubated until settled down or overnight. Compounds were dissolved in DMSO and added to cells in indicated concentrations using a digital dispenser following an optional media change. […] For SMARCA2/4 half-life determination, 150,000 or 200,000 cells were seeded in 24-well plates. […] For SMARCA2/4 re-synthesis measurements, 200,000 cells were seeded in 24-well plates. […] Medium was removed, cells were washed with PBS and lysed with 80 µl Lysis Buffer (MSD Tris Lysis Buffer (#R60TX-2) + Halt Inhibitor Cocktail (100x) + Benzonase 0.5 µL/ml). Samples were frozen at −80 °C and thawed at room temperature before use. Samples were transferred to a V-bottom plate and insoluble debris was pelleted by centrifugation for 5 min at maximum speed. The supernatant was transferred to a fresh plate. Master Mix and Ladder were prepared according to manufacturer’s instructions for 12–230 kDa Wes Separation Module, 8 × 25 capillary cartridges, Protein Simple #SM-W004 with Anti-Rabbit Detection Module for Wes, Peggy Sue or Sally Sue, Protein Simple #DM-001. 4.8 µl lysate were mixed with 1.2 µl Master Mix to achieve a protein concentration of ~0.5 µg/µl. […] Wes plates were prepared and run according to manufacturer’s instructions. Proteins were quantified with accompanying Compass Software. SMARCA2/4 protein levels were normalised to GAPDH. […] Where applicable, curves were fitted using a 4-parametric logistic model.

SMARCA4^BD = biological target: T1, SMARCA4^BD (Homo sapiens, UniProt P51532); assay: SPR binding to immobilised SMARCA4 bromodomain
T1 construct: P51532, residues 1448–1569 with additional N-terminal SM residues; GST (TEV site) (N, cleaved yes); made in house; host or cells: Escherichia coli BL21(DE3); construct from SGC Toronto
T1 sequence (P51532 1448-1569): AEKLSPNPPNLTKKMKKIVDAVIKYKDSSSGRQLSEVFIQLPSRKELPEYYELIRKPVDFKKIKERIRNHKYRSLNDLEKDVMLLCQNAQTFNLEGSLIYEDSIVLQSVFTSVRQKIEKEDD
Protocol: SMARCA4^BD was provided by the Structural Genomics Consortium (SGC), Toronto[32] and SMARCA2^BD and PRM1^BD5 were synthesised by GeneArt then subcloned into pDEST15 vectors (Invitrogen). The VCB complex was expressed and purified as described previously, with the modification that 0.3 mM IPTG was used for induction of expression. […] Both were stored in 20 mM 4-(2-hydroxyethyl)−1-piperazineethanesulfonic acid (HEPES), 150 mM sodium chloride and 1 mM tris(2-carboxyethyl)phosphine (TCEP) pH 7.5. SMARCA2^BD, SMARCA4^BD and PBRM1^BD5 were expressed in Escherichia coli BL21(DE3) as N-terminal GST fusion proteins with a TEV protease cleavage site. Expression and purification of these proteins has been described previously[32],[33]. Starter cultures were grown overnight at 37 °C in 10 mL of Luria-Bertani (LB) medium with ampicillin (100 μg/mL). The starter cultures were diluted (1:100) in Terrific Broth (TB) medium with ampicillin (100 μg/mL) and grown in a shaking incubator at 37 °C to an optical density (OD600) ~1 before the temperature was lowered for induction (to 23 °C for SMARCA2^BD or 18 °C for SMARCA4^BD and PRRM1^BD5). […] Cells were harvested by centrifugation and stored at −80 °C prior to purification. Cells were resuspended in Lysis buffer and lysed by sonication (20 pulses of 5 s for 4 min) using a Sonopuls HD 3080 (Bandelin, Berlin, Germany) or by homogenisation using a Stansted Pressure Cell Homogeniser (Stansted Fluid Power). The Lysis buffers were as follows: for SMARCA2^BD: 50 mM HEPES, 500 mM sodium chloride, 5% glycerol, 5 mM dithiothreitol (DTT); for SMARCA4^BD: 25 mM HEPES, 0.3 M sodium chloride, 5% glycerol, 10 mM DTT, pH 7.5; for PBRM1^BD5: 25 mM HEPES, 300 mM sodium chloride, 5% glycerol, 10 mM DTT, pH 7.8; in each case supplemented with complete protease inhibitors (Roche). Affinity purification was performed using Glutathione Sepharose 4B (GE Healthcare) in batch mode or on-column. […] For SMARCA2^BD, prior to TEV protease cleavage the eluted GST-tagged BD was first dialysed into desalting buffer (20 mM HEPES, 250 mM sodium chloride, pH 7.0 + 0.5% glycerol). Where TEV cleavage was performed in solution, a second affinity (GST-trap) column purification step was carried out to remove the GST-tag and uncleaved GST-tagged protein. Proteins were further purified by SEC (HiLoad Superdex-75, 16/600) (GE Healthcare) and stored in Storage buffer (for SMARCA2^BD: 20 mM HEPES, 150 mM sodium chloride, pH 7.5; for SMARCA4^BD: 10 mM HEPES, 0.5 M NaCl, 5% glycerol, pH 7.5; for PBRM1^BD5: 20 mM HEPES, 300 mM NaCl, 5 mM DTT, pH 7.8). For AlphaScreen assays, eluted GST-tagged BDs were purified directly by SEC in the respective storage buffers without TEV cleavage. All chromatography purification steps were performed either at room temperature or 4 °C using an ÄKTA FPLC purification system (GE Healthcare) or a plastic Econo-Pac column (Bio-Rad).
SPR data were acquired on Biacore 8K or T200 instruments (Cytiva). Target proteins were immobilised at 25 °C on CM5 chips by amine coupling (EDC/NHS, Cytiva) in HBS-P+ running buffer (pH 7.4), containing 2 mM TCEP. After surface activation with EDC/NHS (contact time 420 s, flow rate 10 µl/min) SMARCA2^BD and SMARCA4^BD at 0.01–0.05 mg/ml in coupling buffer (10 mM Na-Acetate pH 6.5, 0.005% TWEEN 20 and 50 µM PFI-3[13]) were immobilised to a density of 100–5000 Response Units (RU). The reference surface was subsequently deactivated using 1 M ethanolamine. For VCB immobilisation, streptavidin (Sigma Aldrich, prepared at 1 mg/ml in 10 mM sodium acetate coupling buffer, pH 5.0) was immobilised by amine coupling to a density of 3000–5000 RU after which biotinylated VCB complex (0.125 mM in running buffer) was streptavidin-coupled to a density of 100–500 RU. Biotinylated VCB was prepared as previously described[27]: in brief, the complex was mixed 1:1 with EZ-Link NHS–PEG4–biotin (Thermo Scientific) and incubated at room temperature for 1 h.

In the case of `Cc1ncsc1-c1ccc([C@H](COC(C)CN2CCC(c3ccc4c(c3)n(C3CCCC3)c3nc(=O)c5c(Br)cccc5n43)CC2)NC(=O)[C@@H]2C[C@@H](O)CN2C(=O)[C@@H](NC(=O)C2(F)CC2)C(C)(C)C)cc1` (some centres unmarked) [compound 9], the DC50 (SMARCA2; RKO (4 h)) is reported as 12 ± 4 nM, the DC50 (SMARCA2; RKO (18 h)) is reported as 5 ± 1 nM and the Dmax (SMARCA2; RKO (4 h)) is reported as 72 ± 7%. For the same molecule, the Dmax (SMARCA2; RKO (18 h)) was 76 ± 10%, the “selectivity for SMARCA2 over SMARCA4 degradation” value (SMARCA2; Supplementary Data 2) was “remarkable selectivity” and the Kd (SMARCA4^BD; SMARCA4BD, mean ± SD) was 505 ± 184 nM. The Kd (SMARCA4^BD; individual replicates) was 361 nM and 443 nM and 712 nM.
`Cc1ncsc1-c1ccc([C@H](COCCN2CCC(c3ccc4c(c3)n(C3CCCC3)c3nc(=O)c5c(Br)cccc5n43)CC2)NC(=O)[C@@H]2C[C@@H](O)CN2C(=O)[C@@H](NC(=O)C2(N(C)C)CC2)C(C)(C)C)cc1` [compound 26] gave a DC50 (SMARCA2; RKO (4 h)) of 12 ± 7 nM, a DC50 (SMARCA2; RKO (18 h)) of 6 ± 2 nM and a Dmax (SMARCA2; RKO (4 h)) of 77 ± 3%. The Dmax (SMARCA2; RKO (18 h)) was 82 ± 4%, the Kd (SMARCA4^BD; SMARCA4BD, mean ± SD) was 210 ± 17 nM and the Kd (SMARCA4^BD; individual replicates) was 202 nM and 199 nM and 229 nM.
In the case of `Cc1ncsc1-c1ccc(CNC(=O)[C@@H]2C[C@@H](O)CN2C(=O)[C@@H](NC(=O)C2(F)CC2)C(C)(C)C)c(OCCCCN2CCC(c3ccc4c(c3)n(C3CCCC3)c3nc(=O)c5c(Br)cccc5n43)CC2)c1` [compound 23], the DC50 (SMARCA2; RKO (4 h)) is reported as over 25000 nM, the DC50 (SMARCA2; RKO (18 h)) is reported as 39 ± 10 nM and the “SMARCA2 Dmax” value (SMARCA2; RKO (18 h)) is reported as 37 ± 5%. The Kd (SMARCA4^BD; SMARCA4BD, mean ± SD) was 169 ± 76 nM and the Kd (SMARCA4^BD; individual replicates) was 117 nM and 133 nM and 256 nM.
With `Cc1ncsc1-c1ccc([C@H](CCCCN2CCC(c3ccc4c(c3)n(C3CCCC3)c3nc(=O)c5c(Br)cccc5n43)CC2)NC(=O)[C@@H]2C[C@@H](O)CN2C(=O)[C@@H](NC(=O)C2(F)CC2)C(C)(C)C)cc1` [compound 25] the DC50 (SMARCA2; RKO (4 h)) was 3 ± 1 nM, the “SMARCA2 Dmax” value (SMARCA2; RKO (4 h)) was 66 ± 5% and the DC50 (SMARCA2; RKO (18 h)) was 3 ± 1 nM. The “SMARCA2 Dmax” value (SMARCA2; RKO (18 h)) was 80 ± 6%, the Kd (SMARCA4^BD; SMARCA4BD, mean ± SD) was 153 ± 10 nM and the Kd (SMARCA4^BD; individual replicates) was 142 nM and 157 nM and 161 nM.
For `Cc1ncsc1-c1ccc([C@H](COC(C)CN2CCC(c3ccc4c(c3)n(C3CCCC3)c3nc(=O)c5c(Br)cccc5n43)CC2)NC(=O)[C@@H]2C[C@@H](O)CN2C(=O)[C@@H](NC(=O)C2(N(C)C)CC2)C(C)(C)C)cc1` (some centres unmarked) [compound 10], the DC50 (SMARCA2; RKO (4 h)) was 6 ± 3 nM, the DC50 (SMARCA2; RKO (18 h)) was 3 ± 3 nM and the Dmax (SMARCA2; RKO (4 h)) was 70 ± 2%. The Dmax (SMARCA2; RKO (18 h)) was 82 ± 5%, the Kd (SMARCA4^BD; SMARCA4BD, mean ± SD) was 381 ± 28 nM and the Kd (SMARCA4^BD; individual replicates) was 359 nM and 413 nM and 372 nM.
With `Nc1cccc2c1c(=O)nc1n(C3CCCC3)c3ccccc3n21` [compound 2] the DC50 (SMARCA2; RKO (4 h)) was over 25000 nM, the DC50 (SMARCA2; RKO (18 h)) was over 25000 nM and the Kd (SMARCA4^BD; SMARCA4BD, mean ± SD) was 2750 ± 455 nM. For the same molecule, the Kd (SMARCA4^BD; individual replicates) was 2.74 µM and 2.3 µM and 3.21 µM and > 2 µM (2×).
Molecule `Cc1ncsc1-c1ccc(CNC(=O)[C@@H]2C[C@H](O)CN2C(=O)[C@@H](NC(=O)C2(F)CC2)C(C)(C)C)c(OCCN2CCC(c3ccc4c(c3)n(C3CCCC3)c3nc(=O)c5c(Br)cccc5n43)CC2)c1` [compound 19] has a DC50 (SMARCA2; RKO (4 h)) of over 25000 nM, a DC50 (SMARCA2; RKO (18 h)) of over 25000 nM and a Kd (SMARCA4^BD; SMARCA4BD, mean ± SD) of 138 ± 43 nM. The Kd (SMARCA4^BD; individual replicates) was 98.2 nM and 132 nM and 183 nM.
